Results: patent US5565462A, “Composition for topical treatment of psoriasis and atopic dermatitis comprising a xanthine derivative” (Teva Pharmaceutical Industries, Ltd., priority 1991, dated 1996)
Entries after “also recorded” stand apart in the source; their conditions may differ.

Tests used:
[1] = tested on: peripheral blood mononuclear cells (PBMC); settings: Ravid et al. 1990; cited from earlier work
[2] = tested on: human psoriatic fibroblasts; test: Inhibition of human psoriatic fibroblast proliferation; assay type: cell-based
Protocol: PTX and PPF, alone as well as PTX in combination with other drugs were tested.
Human psoriatic fibroblasts were obtained from skin biopsies of 5 individuals with plaque psoriasis. Cells in the 3-7th passages were used for the experiments. Human psoriatic fibroblasts (4×10^3 -6×10^3 cells) were added in 24-well plates and cultured in Dulbecco's Modified Eagle's Medium (DMEM) supplemented with 10% fetal calf serum, 2 mM L-glutamine, 100 u/ml penicillin, 100 μg/ml streptomycin (DMEM+) at 5% CO2 and 95% humidity at 37° C.
After 3 days, medium was replaced with fresh DMEM+(control) or with medium containing various concentrations of compounds alone or in combination with pentoxifylline and incubation was continued for additional 3 days. Stock solutions (10^-1 -10^-2 M) of the compounds tested were made in ethanol. For these compounds special control (DMEM+ with 1% ethanol) was made. The compounds tested together with pentoxifylline were 3-heptanone, 3,3-dimethylbutyric acid, lipoic acid, 1,25-dihydroxyvitamin D3 betamethasone dipropionate and hydrocortisone-17-butyrate.
On the last day of experiments, the medium was aspirated and the cells were obtained by trypsinization. The number of cells in each well was counted by the use of an hemocytometer.
The percentage of inhibition of fibroblast proliferation was calculated according to the formula: [formula] and the results are shown in Tables 3 and 4.

[3] = tested on: human peripheral blood mononuclear cells (lymphocytes); test: Inhibition of the mitogenic (PHA) stimulation of human lymphocytes (PBMC), [3H]thymidine; assay type: cell-based; settings: for inhibition at 1000 µM / inhibition at 300 µM: Homo sapiens, Lymphocyte, lymphocytes from healthy volunteers, read-out: net inhibitory effect on the mitogenic stimulation of human lymphocytes; for inhibition at 1000 µM: 1 × 10^-3 M; for inhibition at 300 µM: 3 × 10^-4 M
Protocol: Buffy coats from the Beilinson Medical Center Blood Bank or 20 mL samples of heparinized venous blood from healthy or atopic donors were used as a source for human peripheral blood mononuclear (PBM) cells. PBM cells were separated by Ficoll-Hypaque density gradient centrifugation. […] The nonadhering cells were stirred gently and carefully collected.
PHA (1 μg/mL), indomethacin (5 μg/mL) and various xanthine derivatives were added at initiation of culture. Indomethacin was dissolved in ethanol. […] [methyl-^3 H]Thymidine (1 μCi/well) was added at 68 h, and the cells were harvested 4 h later using an automated cell harvester (Dynatech, Alexandria, Va.). Unless otherwise stated, all cultures were performed in triplicate.

psoriasis lesions = test: Clinical trial in psoriasis, 5% dyphylline cream vs placebo, PASI; assay type: in vivo, human patients; settings: for % Decrease in PASI: 5% dyphylline cream, n = 33
Protocol: Two similar plaque areas of psoriasis (i.e. both legs or forearms), were selected for treatment in each patient. In each patient one area on one side of the body was treated with 2% pentoxifylline formulated as in Example 1 and the other area on the other side of the body was treated with placebo cream formulated identically but without the pentoxifylline. The cream (formulation A in Example 1) was applied by the patient twice daily.
The dermatological assessment was performed as follows. The dermatologist measured the area of the lesion in cm^2. The severity of each lesion was evaluated by grading erythema, scaling and thickness on a 0-4 scale where 0=none, 1=slight, 2=moderate, 3=severe and 4=exceptionally severe.
Based on these measurements the Psoriasis Area Severity Index (PASI) was calculated for each of the 2 lesions on each patient as follows:
PASI=Area x (Erythema+Thickness+Scaling)
In a different series of tests 5% dyphylline cream was applied in the same vehicle that had been used to apply PTX cream. Thus the formulation used in this series of tests was the same as in Example 1 with the exception that 5% dyphylline was used in place of 2% pentoxifylline. The design of the trial was similar in all respects to the clinical trial of PTX described in Example 5 except that the number of patients was 33.

[4] = tested on: human psoriatic skin transplants; test: Topical treatment of human psoriatic skin transplanted to nude mice (epidermal thickness / acanthosis); assay type: in vivo, human skin on outbred Balb/C nude mice; settings: for % Improvement (Decrease in Thickness) / Average Improvement (decrease in epidermal thickness): 7 days; for Average Improvement (decrease in epidermal thickness): placebo 5%
From the text: Human psoriatic skin from psoriatic patients was transplanted to nude mice essentially according to the method of G. Kreuger et al., Prog. in Dermatol. […] The donors had stable plaque type psoriasis for at least one year preceding biopsy and had not received systemic anti-psoriatic therapy for the 4 weeks preceding biopsy. They had also not received topical therapy or U.V. therapy for the two weeks preceding biopsy. […] In this method the area (A) of the psoriasis in four main body parts (head (H), trunk (T), upper extremities (U) and lower extremities (L)) is assigned a value from 0-6 depending on the extent of psoriasis where O reflects no involvement and 6 reflects 90-100% involvement. The severity of the lesion is assessed based on three parameters: Erythema (E), Desquamation (scaling) (D) and Infiltration (I). The severity of each of these parameters is measured on a scale of 0-4 where 0 is no involvement and 4 is very sever. The total severity score is calculated according to the following formula: […]
Split thickness biopsies of nonpustular psoriatic human tissue, 4×5 cm and 0.4 mm thick were obtained from the edge of established plaques from various donor patients. […] The grafts were allowed to heal for one week prior to topical application of the test preparations.
Outbred Balb/C nude mice, 2 to 3 months of age were used in this study. The mice were obtained from the pathogen free animal breeding facility at the University of Tel Aviv (Israel) and were raised in the pathogen-free animal facility at the Faculty of Medicine, Technion-Israel Institute of Technology, Haifa, Israel.
On the day following the end of treatment the severity of the psoriatic lesion was assessed and then the animals were sacrificed and the entire graft was excised and divided into two equal sections. One section was used to assess changes in the rate of proliferation by autoradiography (tritiated thymidine incorporation) while the other section was sectioned for microscopic histological assessment, including acanthosis and parakeratosis.
In another series of experiments, human psoriatic skin of various severities was transplanted on each of 28 nude mice. The graft area was treated with various preparations as described above.
The treatments were applied as creams and were administered as described above.

[5] = additional drug 10^-4 M with PTX 10^-3 M
[6] = additional drug 10^-4 M with PTX 10^-4 M
[7] = additional drug 10^-7 M with PTX 10^-4 M
[8] = additional drug 10^-3 M with PTX 10^-3 M
[9] = additional drug 10^-3 M with PTX 10^-4 M

C[C@@H]1C[C@H]2[C@@H]3CCC4=CC(=O)C=C[C@]4(C)[C@@]3(F)[C@@H](O)C[C@]2(C)[C@@]1(O)C(=O)CO [dexamethasone]
inhibition of mitogenic stimulation of PBMC (in words) [1]: inhibited the mitogenic stimulation of PBMC

CCC(=O)OCC(=O)[C@@]1(OC(=O)CC)[C@@H](C)C[C@H]2[C@@H]3CCC4=CC(=O)C=C[C@]4(C)[C@@]3(F)[C@@H](O)C[C@@]21C [Betamethasone dipropionate, betamethasone dipropionate]
% Inhibition of Proliferation [2, 5]: 77.5% | % Inhibition of Proliferation [2, 6]: 55.8% | % Inhibition of Proliferation [2, 7]: 43.1%

Cn1c(=O)c2[nH]cnc2n(C)c1=O [Theophylline]
inhibition at 1000 µM [3]: 59% | inhibition at 300 µM [3]: 37%

C=C1/C(=C\C=C2/CCC[C@]3(C)[C@@H]([C@H](C)CCCC(C)(C)O)CC[C@@H]23)C[C@@H](O)C[C@@H]1O [1,25(OH)2 D3, 1,25-dihydroxyvitamin D3]
% Inhibition of Proliferation [2, 7]: 49.5%

Cn1c(=O)c2c(ncn2CC(O)CO)n(C)c1=O (centres unmarked) [Dyphylline]
effectiveness of treatment of psoriasis (in words) (psoriasis lesions; 5% dyphylline cream vs placebo): nearly ineffective with respect to placebo; also recorded: virtually inactive in the treatment of psoriasis | % Decrease in PASI (psoriasis lesions; 1 week, placebo 12.4): 12.6% | % Decrease in PASI (psoriasis lesions; 2 weeks, placebo 30.0): 25.9% | % Decrease in PASI (psoriasis lesions; 4 weeks, placebo 21.5): 28.0% | % Decrease in PASI (psoriasis lesions; 6 weeks, placebo 15.6): 26.5% | SUCCESS RATIO (decrease of at least 15% in epidermal thickness) ([4]; 8% dyphylline, 7 days topical, placebo 0/6): 0/2 | % Improvement (Decrease in Thickness) ([4]; 8% dyphylline, donor patient 1 (PASI 3.2)): 0% | % Improvement (Decrease in Thickness) ([4]; 8% dyphylline, donor patient 5 (PASI 31.3)): 0% | Average Improvement (decrease in epidermal thickness) ([4]; 8% dyphylline): 0% | Epidermal Thickness (Acanthosis) after 7 days treatment ([4]; 8% dyphylline, donor patient 1 (PASI 3.2), before treatment 44 μm): 65 μm | Epidermal Thickness (Acanthosis) after 7 days treatment ([4]; 8% dyphylline, donor patient 5 (PASI 31.3), before treatment 35 μm): 45 μm | effectiveness in treating psoriasis (in words) ([4]; experiment of Table 1, transplanted skin): virtually inactive | effectiveness in treating psoriasis (in words) ([4]; experiment of Table 2, 28 nude mice): inactive | inhibition at 1000 µM [3]: 24% | inhibition at 300 µM [3]: 12%

O=C(O)CCCCC1CCSS1 (centres unmarked) [Lipoicacid, lipoic acid]
% Inhibition of Proliferation [2, 5]: 50.2% | % Inhibition of Proliferation [2, 6]: 14.5%

CC(C)(C)CC(=O)O [3,3dimethyl butyricacid, 3,3-dimethylbutyric acid]
% Inhibition of Proliferation [2, 8]: 21% | % Inhibition of Proliferation [2, 9]: 36.3% | % Inhibition of Proliferation [2, 5]: 17.2% | % Inhibition of Proliferation [2, 6]: 19.3%

CCC(=O)O[C@]1(C(=O)CCl)[C@@H](C)C[C@H]2[C@@H]3CCC4=CC(=O)C=C[C@]4(C)[C@@]3(F)[C@@H](O)C[C@@]21C [Clobetasol propionate]
Average Improvement (decrease in epidermal thickness) ([4]; 0.05% clobetasol propionate (Dermovate)): 35% | % Improvement (Decrease in Thickness) ([4]; 0.05% clobetasol propionate, donor patient 1 (PASI 3.2)): 45% | % Improvement (Decrease in Thickness) ([4]; 0.05% clobetasol propionate, donor patient 3 (PASI 7.6)): 41% | % Improvement (Decrease in Thickness) ([4]; 0.05% clobetasol propionate, donor patient 4 (PASI 17.6)): 55% | % Improvement (Decrease in Thickness) ([4]; 0.05% clobetasol propionate, donor patient 5 (PASI 31.3)): 0% | Epidermal Thickness (Acanthosis) after 7 days treatment ([4]; 0.05% clobetasol propionate, donor patient 1 (PASI 3.2), before treatment 44 μm): 24 μm | Epidermal Thickness (Acanthosis) after 7 days treatment ([4]; 0.05% clobetasol propionate, donor patient 3 (PASI 7.6), before treatment 46 μm): 27 μm | Epidermal Thickness (Acanthosis) after 7 days treatment ([4]; 0.05% clobetasol propionate, donor patient 4 (PASI 17.6), before treatment 54 μm): 24 μm | Epidermal Thickness (Acanthosis) after 7 days treatment ([4]; 0.05% clobetasol propionate, donor patient 5 (PASI 31.3), before treatment 35 μm): 47 μm

CCCCCC(C)=O [2-Heptanone]
% Inhibition of Proliferation [2, 8]: 45% | % Inhibition of Proliferation [2, 9]: 18.6% | % Inhibition of Proliferation [2, 5]: 26.4% | % Inhibition of Proliferation [2, 6]: 21.0% | % Inhibition of Proliferation ([2]; additional drug 10^-5 M with PTX 10^-3 M): 21.3%

CCCn1cnc2c1c(=O)n(CCCCC(C)=O)c(=O)n2C [Propentofylline, 3-methyl-7-propyl-1-(5-oxohexyl)-xanthine]
inhibition at 1000 µM ([2]; Homo sapiens, Fibroblast, compound alone, 10^-3 M, Table 4): 39 ± 7% | inhibition at 100 µM ([2]; Homo sapiens, Fibroblast, compound alone, 10^-4 M, Table 4): 20.3 ± 6.6% | inhibition at 1000 µM [3]: 89% | inhibition at 300 µM [3]: 88% | inhibition of the mitogenic stimulation compared with the other xanthine derivatives (in words) ([3]; vs theophylline and diphylline, healthy volunteers): inhibited the mitogenic stimulation to a far greater effect than the other xanthine derivatives
